{"source": "patent US6245968A", "about": "“Mutated hydroxyphenylpyruvate dioxygenase, DNA sequence and isolation of plants which contain such a gene and which are tolerant to herbicides” (Aventis CropScience S.A., priority 1997, dated 2001)", "key": {"[1]": {"biological_target": "T1, Synechocystis PCC6803 HPPD variant SyA318 (Glycine318 replaced with alanine) (Synechocystis sp., UniProt Q55810, G318A)", "T1 construct": "made in house; host or cells: E. coli, vector ptrc-99 A; crude extract (JM105 is named for the unmutated plasmid)", "experiment": "HPPD activity by HPLC determination of homogentisate (Km, IC50)", "assay_type": "biochemical", "procedure": "(§1) Glycine318, replaced with alanine, designated SyA318, similar to PfA334 (in Example 3).\n(§2) The mutants SyN318 and SyA318 which were obtained in the previous example were examined, in comparison with the unmutated HPPD of Synechocystis, for the biochemical characteristics Km and IC50 with regard to an HPPD inhibitor, i.e. 2-cyano-3-cyclopropyl-1-(2-methylsulphonyl-4-trifluoromethylphenyl)propane-1,3-dione. This analysis was carried out using the following protocol:\n(§3) The HPPD activity is measured by determining, by means of high performance liquid chromatography (HPLC), the quantity of product, i.e. homogentisate,which is formed after incubating the enzyme with its substrate HPP. Injecting different amounts of homogentisate, varying from 12 to 48 nmoles, into the column enables the retention time of the homogentisate to be determined and the peak area to be correlated with the quantity of product injected.\n(§4) The activity measurements are carried out in a final volume of […] containing: 12.6 mM ascorbate, […] iron (FeH8N2O8S2,6H2O) (previously prepared in 0.1 M tris-acetate buffer, pH6), […] of crude extract containing the HPPD, […] HPP and 0.1 M tris-acetate buffer, pH7.5. The enzyme is firstly incubated with the iron at 30° C. for 1 min and then with the ascorbate at 30° C. for 5 min before the reaction is started by adding the substrate, i.e. the HPP. The incubation is continued at 30° C. for 1 min 30sec and the reaction is then stopped by adding […] of 20% perchloric acid. The proteins are then removed by centrifuging for 5min at 15,300 rpm and at 20° C. The supernatant is recovered. The quantity of homogentisate formed is then analysed by injecting […] of assay mixture into a Pico TagC18 column which is connected to the HPLC system. […] On leaving the column, the homogentisate is detected by measuring absorbance at 288 nm. The quantity of product formed is defined by the area of the peak on the chromatogram.\n(§5) The Km of the HPPD for HPP is determined by measuring the initial velocity of the reaction using different concentrations of HPP. […]"}, "[2]": {"test_system": "Synechocystis PCC6803 HPPD variant SyA318 (Glycine318 replaced with alanine)", "experiment": "HPPD activity by HPLC determination of homogentisate (Km, IC50)", "assay_type": "biochemical", "settings": "SyA318 versus unmutated Synechocystis HPPD; 10 min", "procedure": "as §1, §2, §3, §4, §5"}, "[3]": {"test_system": "Synechocystis PCC6803 HPPD variant SyN318 (Glycine318 replaced with asparagine)", "experiment": "HPPD activity by HPLC determination of homogentisate (Km, IC50)", "assay_type": "biochemical", "settings": "SyN318 versus unmutated Synechocystis HPPD; 10 min", "procedure": "(§6) Glycine318, replaced with asparagine, designated SyN318, similar to PfD334 (in Example 3).\nas §2, §3, §4, §5"}, "[4]": {"biological_target": "T2, Synechocystis PCC6803 HPPD variant SyN318 (Glycine318 replaced with asparagine) (Synechocystis sp., UniProt Q55810, G318N)", "T2 construct": "made in house; host or cells: E. coli, vector ptrc-99 A; crude extract (JM105 is named for the unmutated plasmid)", "experiment": "HPPD activity by HPLC determination of homogentisate (Km, IC50)", "assay_type": "biochemical", "procedure": "as §6, §2, §3, §4, §5"}, "[5]": {"biological_target": "T1, Synechocystis PCC6803 HPPD variant SyA318 (Glycine318 replaced with alanine)", "experiment": "Colorimetric screening test (browning of medium) in E. coli", "assay_type": "cell-based", "settings": "7 mM inhibitor", "procedure": "(§7) A culture medium of the YT broth type, containing 1% agarose (Gibco BRL ultra pure), 5 mM L-tyrosine (Sigma) and the agent for selecting the above mentioned pRPC vector, is dispensed into a 96-well plate at the rate of […] per well. 10 microliter of a culture of E.coli in the exponential phase of growth and harbouring the pRPC vector are dispensed into each well. After 16 hours at 37° C., the wells which only contain the culture medium, or those which have been seeded with an E. coli culture harbouring the vector pKK233-2, are translucent whereas the wells which have been seeded with an E. coli culture harbouring the vector pRPC are coloured brown.\n(§8) With several mutants at position 334 in Pseudomonas fluorescens having been obtained, two site-directed mutagenesis experiments (U.S.E., Pharmacia) were carried out using the oligonucleotides MUGLYA and MUGLYB, which oligonucleotides were intended to replace the glycine at position 318 (of Synechocystis corresponding to the glycine at position 334 of P.fluorescens) either with an asparagine or a serine or with a proline or an alanine (SEQ ID NO 18 and 19).\n(§9) One mutant from each experiment was sequenced.\nas §1"}, "[6]": {"biological_target": "T3, Synechocystis PCC6803 HPPD, unmutated (Synechocystis sp., UniProt Q55810)", "T3 construct": "expressed in transfected cells; host or cells: E. coli JM105, vector ptrc-99 A, IPTG-induced", "T3 sequence (Q55810 1-339)": "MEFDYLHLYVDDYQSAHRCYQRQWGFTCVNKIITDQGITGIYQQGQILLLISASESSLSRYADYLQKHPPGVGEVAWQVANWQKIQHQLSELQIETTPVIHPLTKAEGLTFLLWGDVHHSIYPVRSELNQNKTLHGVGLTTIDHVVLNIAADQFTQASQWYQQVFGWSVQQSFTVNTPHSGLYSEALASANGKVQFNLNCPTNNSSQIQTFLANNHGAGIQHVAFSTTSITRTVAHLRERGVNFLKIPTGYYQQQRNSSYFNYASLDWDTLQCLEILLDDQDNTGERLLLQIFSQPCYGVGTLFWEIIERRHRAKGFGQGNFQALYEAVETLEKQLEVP", "experiment": "Colorimetric screening test (browning of medium) in E. coli", "assay_type": "cell-based", "settings": "7 mM inhibitor, 1 mM IPTG", "procedure": "as §7\nThe dioxygenase activity of the Synechocystis HPPD which had thus been obtained was observed by the browning of the medium, using the previously described colorimetric test, with addition of IPTG (isopropyl-b-D-thiogalactopyranoside) at a concentration of 1 mM in order to induce expression of the protein."}, "[7]": {"biological_target": "T2, Synechocystis PCC6803 HPPD variant SyN318 (Glycine318 replaced with asparagine)", "experiment": "Colorimetric screening test (browning of medium) in E. coli", "assay_type": "cell-based", "settings": "7 mM inhibitor", "procedure": "as §7, §8, §9, §6"}, "[8]": {"test_system": "Pseudomonas fluorescens A32 HPPD, wild type (unmutated, vector pRPC)", "experiment": "Colorimetric screening test (browning of medium) in E. coli", "assay_type": "cell-based", "settings": "7 mM inhibitor", "from_the_text": "The vector pRPA (described in application WO96/38567), which contains a genomic DNA fragment and the coding region of the gene for HPPD from Pseudomonas fluorescens A32, was digested with NcoI, purified and then ligated into the expression vector pKK233-2 (Clontech), which itself was digested with NcoI, the site for which forms a unique cloning site in this vector. The orientation of the gene in the resulting pRPC vector which permitted expression under the control of the trc promoter was verified.\nas §7, with “brown. […]” for “brown.”"}, "[9]": {"biological_target": "Synechocystis PCC6803 HPPD, native (unmutated) (Synechocystis sp., UniProt Q55810)", "experiment": "HPPD activity by HPLC determination of homogentisate (Km, IC50)"}, "[10]": {"test_system": "Pseudomonas fluorescens A32 HPPD variant PfW334 (Glycine334 replaced by tryptophan)", "experiment": "Colorimetric screening test (browning of medium) in E. coli", "assay_type": "cell-based", "settings": "7 mM inhibitor, score 0 to 10", "procedure": "as §7\n(§10) A series of samples was made up with identical culture medium which contained varying concentrations (0 mM to 14 mM) of 2-cyano-3-cyclopropyl-1-(2-methylsulphonyl-4-trifluoromethylphenyl)propane-1,3-dione (EP 0496631), which was dissolved in water and brought to pH7.5. This molecule is a diketonitrile which is recognized as being an effective inhibitor of HPPD activity (Pallett, K. E. et al., 1997. Pestic. Sci. 50, 83-84)."}, "[11]": {"test_system": "Pseudomonas fluorescens A32 HPPD variant PfP334 (Glycine334 replaced by proline)", "experiment": "Colorimetric screening test (browning of medium) in E. coli", "assay_type": "cell-based", "settings": "7 mM inhibitor, score 0 to 10", "procedure": "as §7, §10"}, "[12]": {"test_system": "Pseudomonas fluorescens A32 HPPD variant PfS334 (Glycine334 replaced by serine)", "experiment": "Colorimetric screening test (browning of medium) in E. coli", "assay_type": "cell-based", "settings": "7 mM inhibitor, score 0 to 10", "procedure": "as §7, §10"}, "[13]": {"test_system": "Pseudomonas fluorescens A32 HPPD variant PfL215 (proline 215 replaced by leucine)", "experiment": "Colorimetric screening test (browning of medium) in E. coli", "assay_type": "cell-based", "settings": "7 mM inhibitor, score 0 to 10", "procedure": "as §7, §10"}, "[14]": {"test_system": "Pseudomonas fluorescens A32 HPPD variant PfL333 (Phenylalanine333 replaced by leucine)", "experiment": "Colorimetric screening test (browning of medium) in E. coli", "assay_type": "cell-based", "settings": "7 mM inhibitor, score 0 to 10", "procedure": "as §7, §10"}, "[15]": {"test_system": "Pseudomonas fluorescens A32 HPPD variant PfE298 (Gly298 replaced by glutamic acid)", "experiment": "Colorimetric screening test (browning of medium) in E. coli", "assay_type": "cell-based", "settings": "7 mM inhibitor", "procedure": "as §7, §10"}, "[16]": {"test_system": "Pseudomonas fluorescens A32 HPPD variant PfD334 (Glycine334 replaced by aspartic acid)", "experiment": "Colorimetric screening test (browning of medium) in E. coli", "assay_type": "cell-based", "settings": "7 mM inhibitor, score 0 to 10", "procedure": "as §7, §10"}, "O=C(O)C(=O)Cc1ccc(O)cc1 [17]": {"test_system": "O=C(O)C(=O)Cc1ccc(O)cc1", "experiment": "HPPD activity by HPLC determination of homogentisate (Km, IC50)", "assay_type": "biochemical", "settings": "other: Km of the HPPD for HPP, crude extract, 30° C., pH7.5, pH 7.5", "procedure": "as §1, §2, §3, §4, §5"}, "O=C(O)C(=O)Cc1ccc(O)cc1 [18]": {"test_system": "O=C(O)C(=O)Cc1ccc(O)cc1", "experiment": "HPPD activity by HPLC determination of homogentisate (Km, IC50)", "assay_type": "biochemical", "settings": "other: Km of the HPPD for HPP, crude extract, 30° C., pH7.5, pH 7.5", "procedure": "as §6, §2, §3, §4, §5", "remark": "listed apart in the source"}, "O=C(O)C(=O)Cc1ccc(O)cc1 [19]": {"test_system": "O=C(O)C(=O)Cc1ccc(O)cc1", "experiment": "cells, lysate or membranes named", "settings": "other: Km of the HPPD for HPP, crude extract, 30° C., pH7.5, pH 7.5"}}, "data": [{"compound": "CS(=O)(=O)c1cc(C(F)(F)F)ccc1C(=O)C(C#N)C(=O)C1CC1", "note": "(stereo not drawn) [2-cyano-3-cyclopropyl-1-(2-methylsulphonyl-4-trifluoromethylphenyl)propane-1,3-dione]", "values": [{"measurement": "IC50", "setting": "[1]", "value": 40, "unit": "µM"}, {"measurement": "ratio of the IC50 of a mutant HPPD to the IC50 of the non-mutant HPPD", "setting": "[2]", "value": 500}, {"measurement": "ratio of the IC50 of a mutant HPPD to the IC50 of the non-mutant HPPD", "setting": "[3]", "value": 1000}, {"measurement": "IC50", "setting": "[4]", "value": 80, "unit": "µM"}, {"measurement": "browning of the screening medium", "setting": "[5]", "value": "caused browning of the screening medium"}, {"measurement": "browning of the medium in the colorimetric test", "setting": "[6]", "value": "no browning of the medium"}, {"measurement": "browning of the screening medium", "setting": "[7]", "value": "caused browning of the screening medium"}, {"measurement": "colour of the bacterial culture in the colorimetric test", "setting": "[8]; dissolved in water, pH7.5", "value": "totally without colour"}, {"measurement": "Activity in the screening test using a selective agent dose of 7 mM", "setting": "[8]; score 0 to 10", "value": 0}, {"measurement": "IC50", "setting": "[9]", "value": 0.08, "unit": "µM"}, {"measurement": "Activity in the screening test using a selective agent dose of 7 mM", "setting": "[10]", "value": 6}, {"measurement": "Activity in the screening test using a selective agent dose of 7 mM", "setting": "[11]", "value": 5}, {"measurement": "Activity in the screening test using a selective agent dose of 7 mM", "setting": "[12]", "value": 7}, {"measurement": "Activity in the screening test using a selective agent dose of 7 mM", "setting": "[13]", "value": 7}, {"measurement": "Activity in the screening test using a selective agent dose of 7 mM", "setting": "[14]", "value": 4}, {"measurement": "colour of the screening medium", "setting": "[15]", "value": "turn brown"}, {"measurement": "Activity in the screening test using a selective agent dose of 7 mM", "setting": "[15]; score 0 to 10", "value": 3}, {"measurement": "Activity in the screening test using a selective agent dose of 7 mM", "setting": "[16]", "value": 1}]}, {"compound": "Synechocystis PCC6803 HPPD variant SyA318 (Glycine318 replaced with alanine) (Synechocystis sp. PCC 6803 substr. Kazusa; G318A)", "values": [{"measurement": "Km", "setting": "O=C(O)C(=O)Cc1ccc(O)cc1 [17]", "value": 320, "unit": "µM"}]}, {"compound": "Synechocystis PCC6803 HPPD variant SyN318 (Glycine318 replaced with asparagine) (Synechocystis sp. PCC 6803 substr. Kazusa; G318N)", "values": [{"measurement": "Km", "setting": "O=C(O)C(=O)Cc1ccc(O)cc1 [18]", "value": 470, "unit": "µM"}]}, {"compound": "Synechocystis PCC6803 HPPD, native (unmutated) (Synechocystis sp. PCC 6803 substr. Kazusa)", "values": [{"measurement": "Km", "setting": "O=C(O)C(=O)Cc1ccc(O)cc1 [19]", "value": 60, "unit": "µM"}]}]}
